Laboratory results from article PMC9979163, “Discovery and functional characterization of N-(thiazol-2-yl)-benzamide analogs as the first class of selective antagonists of the Zinc-Activated Channel (ZAC)” (Biochemical pharmacology, 2021).
pIC50: −log10 of the molar value.

Assays:
hα1β2γ2s GABAAR = hα1β2γ2s GABAAR (Homo sapiens, UniProt P14867+P18507+P47870); experiment: TEVC selectivity, hα1β2γ2s GABAAR in oocytes; type: cell-based; conditions: 30 μM, 30 s preapplication, 30 μM GABA (EC20–EC40)
Method: The cDNAs for the various WT and chimeric CLR subunits were linearized and subsequently transcribed and capped mMessage mMachine T7 RNA transcription kit (Ambion, Waltham, MA). […]
On the day of experiment, all compound dilutions were prepared in a saline solution [115 mM NaCl, 2.5 mM KCl, 10 mM MOPS (pH 7.5), 1.8 mM CaCl2, 0.1 mM MgCl2] and pH adjusted to 7.5 (if needed). […] Currents were recorded using pCLAMP 10 (Molecular Devices, Sunnyvale, CA). […]
In all recordings, the compounds or compound combinations were applied in the bath until the peak current decayed to a steady state (up to 30 sec at the most). […] The functional properties of the modulators at the CLRs were determined by pre-application of the modulator to the perfusate 30 sec and followed by co-application of the modulator and the agonist to the perfusate. […]
Data analysis of the results from the TEVC recordings were performed using Clampfit software version 10.5 (Molecular Devices, Crawley, UK) and GraphPad Prism version 7.0c (GraphPad Software, Inc. La Jolla, CA). […] I-V relationships were analyzed by fitting the curves with a third order polynomial model. […]

ZAC = molecular target: T1, ZAC (Homo sapiens, UniProt Q401N2); experiment: FMP assay at ZAC-HEK293 cells; type: cell-based
T1 sequence (Q401N2 26-412): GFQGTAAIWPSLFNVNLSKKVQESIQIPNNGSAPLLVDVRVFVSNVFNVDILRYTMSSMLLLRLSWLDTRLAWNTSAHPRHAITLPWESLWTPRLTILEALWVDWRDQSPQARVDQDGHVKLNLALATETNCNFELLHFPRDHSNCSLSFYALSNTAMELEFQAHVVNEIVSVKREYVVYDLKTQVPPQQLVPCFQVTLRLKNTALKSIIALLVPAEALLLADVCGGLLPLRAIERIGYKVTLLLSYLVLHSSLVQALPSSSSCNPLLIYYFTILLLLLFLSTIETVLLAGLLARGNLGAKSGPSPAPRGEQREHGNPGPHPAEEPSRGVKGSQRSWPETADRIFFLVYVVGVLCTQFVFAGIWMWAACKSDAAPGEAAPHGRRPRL
Method: The screening of the 1,680 compounds in the compound library for antagonist activity at the ZAC-HEK293 cell line was performed in the FMP assay essentially as previously described. The day before the assay, cells were split into poly-D-lysine-coated black 96-well plates with clear bottoms (BD Biosciences, Palo Alto, CA) (6 × 10^4 cells/well). The following day, the culture medium was aspirated and the wells were washed once with 100 μl assay buffer (140 mM NaCl, 4.7 mM KCl, 2.5 mM CaCl2, 1.2 mM MgCl2, 11 mM HEPES, 10 mM D-glucose, pH 7.4), after which 100 μl assay buffer supplemented with FMP dye (0.5 mg/ml) and the various test compounds were added to the wells. The plate was then incubated at 37 °C for 30 min and assayed in a NOVOStar plate reader (BMG Labtechnologies, Offenburg, Germany) measuring emission at 560 nm caused by excitation at 530 nm before and up to 1 min after the addition of 33 μl of agonist solution. In the screening, the 1,680 compounds in the compound library were tested at assay concentrations in the 10–30 μM range, using Cu^2+ as agonist at an assay concentration of 200 μM.
Data from the FMP assay was analysed using KaleidaGraph 3.08 (Synergy Software, Reading, PA). Concentration-response curves for Cu^2+ and concentration-inhibition curves for compound 1 were constructed based on the difference in the relative fluorescence units (RFU) between the maximal fluorescence recorded before and after application of Cu^2+. The data were fitted to sigmoidal curves with variable slopes using nonlinear regression, and EC50 (Cu^2+) and IC50 (compound 1) values were derived from these equations.

Chain of hα1β2γ2s GABAAR (P14867 28-456): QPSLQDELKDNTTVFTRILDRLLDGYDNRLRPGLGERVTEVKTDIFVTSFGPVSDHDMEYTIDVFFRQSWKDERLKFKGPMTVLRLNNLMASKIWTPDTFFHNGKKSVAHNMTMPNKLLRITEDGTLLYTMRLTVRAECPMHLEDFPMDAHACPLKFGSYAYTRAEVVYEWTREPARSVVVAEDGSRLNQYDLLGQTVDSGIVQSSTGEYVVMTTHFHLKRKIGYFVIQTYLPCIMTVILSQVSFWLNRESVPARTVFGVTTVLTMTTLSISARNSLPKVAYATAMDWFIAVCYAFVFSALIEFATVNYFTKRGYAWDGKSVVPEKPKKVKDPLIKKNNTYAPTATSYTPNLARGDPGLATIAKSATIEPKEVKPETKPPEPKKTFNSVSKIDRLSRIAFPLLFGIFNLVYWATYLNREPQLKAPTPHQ
Chain of hα1β2γ2s GABAAR (P47870 25-512 limits assumed): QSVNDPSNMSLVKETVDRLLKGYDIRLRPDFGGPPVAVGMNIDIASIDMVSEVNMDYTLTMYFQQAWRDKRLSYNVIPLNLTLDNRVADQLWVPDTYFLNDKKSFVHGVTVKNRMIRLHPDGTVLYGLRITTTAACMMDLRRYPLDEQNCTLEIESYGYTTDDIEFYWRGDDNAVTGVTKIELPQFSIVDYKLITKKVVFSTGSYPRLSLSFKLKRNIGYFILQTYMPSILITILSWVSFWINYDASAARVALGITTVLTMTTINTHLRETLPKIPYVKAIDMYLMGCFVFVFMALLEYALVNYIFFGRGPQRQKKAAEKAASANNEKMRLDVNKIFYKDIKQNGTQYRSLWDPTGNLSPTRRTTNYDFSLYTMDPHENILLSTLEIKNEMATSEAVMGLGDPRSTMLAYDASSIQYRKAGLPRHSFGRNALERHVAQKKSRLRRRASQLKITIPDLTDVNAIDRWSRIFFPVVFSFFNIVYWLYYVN
Chain of hα1β2γ2s GABAAR (P18507 40-467 isoform P18507-1 limits assumed): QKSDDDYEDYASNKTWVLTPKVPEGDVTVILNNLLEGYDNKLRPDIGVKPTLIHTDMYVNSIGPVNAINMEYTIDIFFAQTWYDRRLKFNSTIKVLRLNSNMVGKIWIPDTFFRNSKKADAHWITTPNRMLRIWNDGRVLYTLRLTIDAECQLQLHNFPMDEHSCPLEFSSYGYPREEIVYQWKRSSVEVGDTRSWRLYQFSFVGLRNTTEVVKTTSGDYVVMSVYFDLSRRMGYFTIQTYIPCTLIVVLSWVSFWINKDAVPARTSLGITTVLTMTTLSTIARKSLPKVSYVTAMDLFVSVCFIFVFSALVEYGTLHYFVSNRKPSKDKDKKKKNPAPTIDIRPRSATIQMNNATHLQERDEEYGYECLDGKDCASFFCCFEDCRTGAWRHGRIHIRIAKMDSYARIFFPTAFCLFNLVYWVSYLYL

SMILES | Agonist, antagonist or PAM activity (hα1β2γ2s GABAAR) | pIC50 (ZAC)
CC(C)(C)c1csc(NC(=O)c2cccc(F)c2)n1 [5a, N-(4-(tert-butyl)thiazol-2-yl)-3-fluorobenzamide] | did not display significant activity | 
COC(=O)c1sc(NC(=O)c2cc(Br)ccc2Cl)nc1C [compound 1, 2-(5-bromo-2-chlorobenzamido)-4-methylthiazole-5-methyl ester] |  | 5.21
